Reference: patent publication US9974782B2, “Phosphodiesterase inhibitors and uses thereof” (THE TRUSTEES OF COLUMBIA UNIVERSITY IN THE CITY OF NEW YORK, priority 2008, dated 2018)

How the values were obtained:
[1] = tested on: APP processing (APP, sAPPα, sAPPβ, CT83, CT99); assay: Western blot of APP full length and fragments in brain; assay type: in vivo, mouse; set-up: concentration or dose not given beside the values
Source text: Aβ originates from APP through a proteolytic process catalyzed by secretases, producing different fragments with characteristic functions^A24. APP is first cleaved by α and β secretases that generate soluble extracellular fragments, named α-APPs and β-APPs, and three forms of carboxyterminal fragments (CTFs): C83 by α-secretase cleavage, C89 and C99 by β-secretase cleavage^A25, A26. CTFs are substrates of γ-secretase generating C-terminal peptides of 57-58 residues (APP intracellular domain, AID) and Aβ fragments from CTFβ^A27. To assess whether the decrease in Aβ levels was related to changes in APP processing [see FIG. 20], western blot analyses on mice brain cortex for full length APP and its fragments was performed.
APP levels were found unchanged also in 7-10 months old transgenic mice (FIGS. 7B-7C). They have been treated with daily injections of sildenafil for 3 weeks at age of 3 months. […] Moreover, a decrease in sAPPβ in transgenic mice treated with sildenafil was observed (FIGS. 7B, 7E) showing a down-regulation of BACE activity. […] Thus, without being bound by theory, the reduction in Aβ levels by sildenafil is due to an action of the inhibitor onto α- and β-secretase activity.
Mice brains were homogenized in buffer (20 mM tris base, 1 mM EDTA, 1 mM EGTA, 250 mM sucrose) containing protease inhibitors. Part of the homogenates was ultracentrifugated at 100,000 g for 1 h and the supernatants were used to analyze the sAPPα and the sAPPβ fragments. The protein concentration in each homogenate was quantified to analyze the equal amounts of protein from each sample. Samples were loaded into the wells of a 4-12% Bis-Tris precast gel, electrophoresed and transferred according to manufacturer's protocol. After Ponceau S staining, membranes were washed and incubated in 5% non-fat milk powder in PBS for 1 h at room temperature. Then, they were incubated overnight at 4° C. with the following primary antibodies, diluted in goat serum 5% in PBS: mouse 22C11 for APP full length detection (1:4000, Sigma); mouse sAPPα and Swedish sAPPβ (1:4000 and 1:1000, IBL), rabbit AbD for CTFs (1:250, Zymed), mouse Tubulin as control (1:20.000, Sigma). After overnight incubation, membranes were washed 3 times in PBS for 30 minutes and incubated with goat anti-mouse or goat-anti-rabbit antibody, diluted in 5% non-fat milk powder in PBS (1:4000 and 1:2000). After 30 minutes washing in PBS, radiographic detection was performed after exposure to ECL (Pierce).

APP/PS1 mice = assay: Electrophysiological analysis (BST, LTP) of slices from mice previously treated i.p.; assay type: in vivo, mouse
Description: To add depth to the analysis of the functional changes that underlie the striking effects of sildenafil on APP/PS1 mice behavioral performance, synaptic function in hippocampi from the same mice was examined. […] The drug was administered either acutely or for 1 course of 3 week treatment. […] This dose yields concentrations of 2.5 μM cGMP in the hippocampus^[…]. […] Radial-arm water-maze (RAWM) was performed for 3 weeks. Then, the animals were sacrificed for electrophysiological recordings. To decide the time of administration of sildenafil in the acute experiments, a series of studies was performed in which the inhibitor was injected i.p. at 5 min before the electric shock or at 5 min before the first acquisition trial with the radial arm water maze. […] Thus, all the behavioral experiments on the acute effects of sildenafil reported in the result section were performed with injection after the training. Animals were sacrificed by cervical dislocation followed by decapitation. Hippocampi were quickly removed. Transverse hippocampal slices (400 μm) were cut and recorded according to standard procedures^[…]. For example, following cutting hippocampal slices were transferred to a recording chamber where they were maintained at 29° C. and perfused with artificial cerebrospinal fluid (ACSF) continuously bubbled with 95% O2 and 5% CO2. […] CA1 fEPSPs were recorded by placing both the stimulating and the recording electrodes in CA1 stratum radiatum. BST was assayed either by plotting the peak amplitude of the fiber volley against the slope of the fEPSP, or by plotting the stimulus voltages against slopes of fEPSP. For LTP experiments, a 15 min baseline was recorded every min at an intensity that evokes a response 35% of the maximum evoked response. […] Responses were recorded for 2 hrs after tetanization and measured as field-excitatory-post-synaptic potential (fEPSP) slope expressed as percentage of baseline. The results were expressed as mean±Standard Error Mean (SEM).

[2] = 3-month-old APP/PS1 treated with sildenafil
[3] = APP/PS1 at 7-10 months, sildenafil for 3 weeks at 3 months
[4] = 3 mg/kg, treated at 3 months, tested at 6-8 months
[5] = 6-8 month-old APP/PS1, 3 mg/Kg i.p. for 3 weeks at 3 months of age
[6] = 6-8 month-old WT, 3 mg/Kg i.p. for 3 weeks at 3 months of age
[7] = treated at 3 months, tested at 6-8 months, APP/PS1

In the case of `CCCc1nn(C)c2c(=O)[nH]c(-c3cc(S(=O)(=O)N4CCN(C)CC4)ccc3OCC)nc12` [sildenafil, 5-[2-ethoxy-5-(4-methyl-1-piperazinylsulphonyl)phenyl]-1-methyl-3-n-propyl-1,6-dihydro-7H-pyrazolo[4,3-d]pyrimidin-7-one], the “APP full length, % of control” value [1, 2] is reported as 125.75±4.44%, the “CT83, % of control” value [1, 2] is reported as 74.5±6.73% and the “CT99, % of control” value [1, 2] is reported as 95.25±5.66%. For the same compound, the “sAPPα, % of control” value [1, 2] was 86.25±5.02%, the “sAPPβ, % of control” value [1, 2] was 43.25±3.90% and the “APP full length, % of control” value [1, 3] was 107.4±3.88%. For the same compound, the “CT83, % of control” value [1, 3] was 82.75±6.78%, the “CT99, % of control” value [1, 3] was 87.2±7.63% and the “sAPPα, % of control” value [1, 3] was 153.65±11.95%. For the same compound, the “sAPPβ, % of control” value [1, 3] was 25.6±2.83%, the “minimum time needed for a positive effect on BST” value (APP/PS1 mice; [4]) was 2 weeks and the “minimum time needed for a positive effect on LTP” value (APP/PS1 mice; [4]) was 2 weeks. For the same compound, the “BST, fEPSP slope” value (APP/PS1 mice; [5]) was 1.03±0.12 V/sec, the “BST, fEPSP slope as % of vehicle-treated APP/PS1 mice” value (APP/PS1 mice; [5]) was roughly 160% and the “LTP as % of sildenafil-treated WT mice” value (APP/PS1 mice; [5]) was roughly 100%. For the same compound, the “LTP, % of baseline at 120 min” value (APP/PS1 mice; [5]) was 233.81±30.47%, the “BST, fEPSP slope” value (APP/PS1 mice; [6]) was 1.01±0.12 V/sec and the “BST, slope of input-output curve as % of vehicle-treated WT mice” value (APP/PS1 mice; [6]) was roughly 94%. The “LTP as % of vehicle-treated mice” value (APP/PS1 mice; [6]) was roughly 112%, the “LTP, % of baseline” value (APP/PS1 mice; [6]) was 234.67±17.19% and the “minimum concentration needed to improve BST” value (APP/PS1 mice; [7]) was 3 mg/kg. For the same compound, the “minimum concentration needed to improve LTP” value (APP/PS1 mice; [7]) was 3 mg/kg.
